Measured values taken from PubChem BioAssay (NCI).
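Method: 48-hour compound exposure of cells in 96-well plates, five concentrations, linear interpolation of endpoints. At the TGI there is no net growth.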

Legend:
Test in all cases: DTP human tumour cell line panel, 48 h
OVCAR-5 ovarian = system: OVCAR-5 ovarian
LXFL 529 NSCLC = system: LXFL 529 NSCLC
HOP-92 NSCLC = system: HOP-92 NSCLC
SK-MEL-28 melanoma = system: SK-MEL-28 melanoma
SF-268 CNS = system: SF-268 CNS
UO-31 renal = system: UO-31 renal
NCI-H522 lung = system: NCI-H522 lung
SW-620 colon = system: SW-620 colon
SN12C renal = system: SN12C renal
SF-295 CNS = system: SF-295 CNS
NCI-H23 lung = system: NCI-H23 lung
IGROV1 ovarian = system: IGROV1 ovarian
HOP-62 NSCLC = system: HOP-62 NSCLC
SK-MEL-2 melanoma = system: SK-MEL-2 melanoma
SK-OV-3 ovarian = system: SK-OV-3 ovarian
UACC-257 melanoma = system: UACC-257 melanoma
KM20L2 colon = system: KM20L2 colon
SNB-75 CNS = system: SNB-75 CNS
SNB-19 CNS = system: SNB-19 CNS
OVCAR-4 ovarian = system: OVCAR-4 ovarian
OVCAR-3 ovarian = system: OVCAR-3 ovarian
DLD-1 colon = system: DLD-1 colon
HT29 colon = system: HT29 colon
M19-MEL melanoma = system: M19-MEL melanoma
DMS 114 small cell lung = system: DMS 114 small cell lung
OVCAR-8 ovarian = system: OVCAR-8 ovarian
HL-60(TB) leukemia = system: HL-60(TB) leukemia
RPMI-8226 leukemia = system: RPMI-8226 leukemia
EKVX NSCLC = system: EKVX NSCLC
LOX IMVI melanoma = system: LOX IMVI melanoma
HCT-15 colon = system: HCT-15 colon
NCI-H226 lung = system: NCI-H226 lung
SNB-78 CNS = system: SNB-78 CNS
UACC-62 melanoma = system: UACC-62 melanoma
NCI-H460 lung = system: NCI-H460 lung
TK-10 renal = system: TK-10 renal
HCT-116 colon = system: HCT-116 colon
MOLT-4 leukemia = system: MOLT-4 leukemia
A549 NSCLC = system: A549 NSCLC
HOP-18 NSCLC = system: HOP-18 NSCLC
RXF 393 renal = system: RXF 393 renal
CCRF-CEM leukemia = system: CCRF-CEM leukemia
A498 renal = system: A498 renal
MALME-3M melanoma = system: MALME-3M melanoma
U251 CNS = system: U251 CNS
K-562 leukemia = system: K-562 leukemia
ACHN renal = system: ACHN renal
COLO 205 colon = system: COLO 205 colon
DMS 273 small cell lung = system: DMS 273 small cell lung
786-0 renal = system: 786-0 renal
SF-539 CNS = system: SF-539 CNS
M14 melanoma = system: M14 melanoma
KM12 colon = system: KM12 colon
SK-MEL-5 melanoma = system: SK-MEL-5 melanoma
XF 498 CNS = system: XF 498 CNS
CAKI-1 renal = system: CAKI-1 renal
SR leukemia = system: SR leukemia
HCC-2998 colon = system: HCC-2998 colon

CCC1(CC)C(=O)NC(=O)NC1=S
TGI (OVCAR-5 ovarian): > 100 µM | TGI (LXFL 529 NSCLC): > 100 µM | TGI (HOP-92 NSCLC): > 100 µM | TGI (SK-MEL-28 melanoma): > 100 µM | TGI (SF-268 CNS): > 100 µM | TGI (UO-31 renal): > 100 µM | TGI (NCI-H522 lung): > 100 µM | TGI (SW-620 colon): > 100 µM | TGI (SN12C renal): > 100 µM | TGI (SF-295 CNS): > 100 µM | TGI (NCI-H23 lung): > 100 µM | TGI (IGROV1 ovarian): > 100 µM | TGI (HOP-62 NSCLC): > 100 µM | TGI (SK-MEL-2 melanoma): > 100 µM | TGI (SK-OV-3 ovarian): > 100 µM | TGI (UACC-257 melanoma): > 100 µM | TGI (KM20L2 colon): > 100 µM | TGI (SNB-75 CNS): > 100 µM | TGI (SNB-19 CNS): > 100 µM | TGI (OVCAR-4 ovarian): > 100 µM | TGI (OVCAR-3 ovarian): > 100 µM | TGI (DLD-1 colon): > 100 µM | TGI (HT29 colon): > 100 µM | TGI (M19-MEL melanoma): > 100 µM | TGI (DMS 114 small cell lung): > 100 µM | TGI (OVCAR-8 ovarian): > 100 µM | TGI (HL-60(TB) leukemia): > 100 µM | TGI (RPMI-8226 leukemia): > 100 µM | TGI (EKVX NSCLC): > 100 µM | TGI (LOX IMVI melanoma): > 100 µM | TGI (HCT-15 colon): > 100 µM | TGI (NCI-H226 lung): > 100 µM | TGI (SNB-78 CNS): > 100 µM | TGI (UACC-62 melanoma): > 100 µM | TGI (NCI-H460 lung): > 100 µM | TGI (TK-10 renal): > 100 µM | TGI (HCT-116 colon): > 100 µM | TGI (MOLT-4 leukemia): > 100 µM | TGI (A549 NSCLC): > 100 µM | TGI (HOP-18 NSCLC): > 100 µM | TGI (RXF 393 renal): > 100 µM | TGI (CCRF-CEM leukemia): > 100 µM | TGI (A498 renal): > 100 µM | TGI (MALME-3M melanoma): > 100 µM | TGI (U251 CNS): > 100 µM | TGI (K-562 leukemia): > 100 µM | TGI (ACHN renal): > 100 µM | TGI (COLO 205 colon): > 100 µM | TGI (DMS 273 small cell lung): > 100 µM | TGI (786-0 renal): > 100 µM | TGI (SF-539 CNS): > 100 µM | TGI (M14 melanoma): > 100 µM

Cc1cc(NS(=O)(=O)c2ccc(NC(=O)c3ccc(Cl)c4c(Nc5ccc(S(=O)(=O)Nc6cc(C)on6)cc5)c5ccccc5nc34)cc2)no1
TGI (OVCAR-5 ovarian): 38.6 µM | TGI (LXFL 529 NSCLC): 48.5 µM | TGI (HOP-92 NSCLC): 46.2 µM | TGI (SF-268 CNS): 42.3 µM | TGI (UO-31 renal): 37.1 µM | TGI (KM12 colon): 44.3 µM | TGI (NCI-H522 lung): 33.2 µM | TGI (SW-620 colon): 66.1 µM | TGI (SN12C renal): 41.7 µM | TGI (SF-295 CNS): 57.4 µM | TGI (IGROV1 ovarian): 49.7 µM | TGI (HOP-62 NSCLC): 55 µM | TGI (SK-MEL-2 melanoma): 50.5 µM | TGI (SK-OV-3 ovarian): 42.2 µM | TGI (UACC-257 melanoma): 43.5 µM | TGI (KM20L2 colon): 40 µM | TGI (SNB-75 CNS): 24.5 µM | TGI (SNB-19 CNS): 32.4 µM | TGI (OVCAR-4 ovarian): 81.8 µM | TGI (OVCAR-3 ovarian): 33.4 µM | TGI (HT29 colon): 41.6 µM | TGI (M19-MEL melanoma): 50.3 µM | TGI (DMS 114 small cell lung): 42.5 µM | TGI (OVCAR-8 ovarian): > 100 µM | TGI (HL-60(TB) leukemia): 49.5 µM | TGI (RPMI-8226 leukemia): 72.7 µM | TGI (EKVX NSCLC): 64.9 µM | TGI (LOX IMVI melanoma): 41.6 µM | TGI (HCT-15 colon): 43 µM | TGI (SNB-78 CNS): 84.1 µM | TGI (UACC-62 melanoma): 34.3 µM | TGI (NCI-H460 lung): 53.9 µM | TGI (TK-10 renal): 71.1 µM | TGI (HCT-116 colon): 27.4 µM | TGI (MOLT-4 leukemia): 77.3 µM | TGI (SK-MEL-5 melanoma): 55.4 µM | TGI (XF 498 CNS): 75.9 µM | TGI (A549 NSCLC): 62.4 µM | TGI (HOP-18 NSCLC): 30.4 µM | TGI (CCRF-CEM leukemia): 51.8 µM | TGI (A498 renal): 47.4 µM | TGI (MALME-3M melanoma): 48.7 µM | TGI (U251 CNS): 32.8 µM | TGI (K-562 leukemia): 64.3 µM | TGI (ACHN renal): 53.7 µM | TGI (COLO 205 colon): 41.4 µM | TGI (DMS 273 small cell lung): 42 µM | TGI (CAKI-1 renal): 30.6 µM | TGI (786-0 renal): 32.2 µM | TGI (SF-539 CNS): 32.3 µM | TGI (M14 melanoma): 49.4 µM

Cc1nc2ccccc2c(=O)n1/N=C(\N=Nc1ccc(Cl)cc1)c1cccc(-c2ccco2)c1
TGI (LXFL 529 NSCLC): > 100 µM | TGI (HOP-92 NSCLC): 55.4 µM | TGI (SK-MEL-28 melanoma): 58.7 µM | TGI (SF-268 CNS): > 100 µM | TGI (UO-31 renal): 43.1 µM | TGI (NCI-H522 lung): 54.4 µM | TGI (SW-620 colon): > 100 µM | TGI (SN12C renal): > 100 µM | TGI (SF-295 CNS): 94.6 µM | TGI (NCI-H23 lung): 65.2 µM | TGI (IGROV1 ovarian): > 100 µM | TGI (HOP-62 NSCLC): 62.6 µM | TGI (SK-OV-3 ovarian): > 100 µM | TGI (KM20L2 colon): > 100 µM | TGI (DLD-1 colon): > 100 µM | TGI (HT29 colon): > 100 µM | TGI (M19-MEL melanoma): > 100 µM | TGI (OVCAR-8 ovarian): > 100 µM | TGI (HL-60(TB) leukemia): 69.4 µM | TGI (RPMI-8226 leukemia): > 100 µM | TGI (EKVX NSCLC): > 100 µM | TGI (LOX IMVI melanoma): > 100 µM | TGI (HCT-15 colon): > 100 µM | TGI (UACC-62 melanoma): 87 µM | TGI (NCI-H460 lung): > 100 µM | TGI (TK-10 renal): > 100 µM | TGI (HCT-116 colon): 95.5 µM | TGI (MOLT-4 leukemia): > 100 µM | TGI (SK-MEL-5 melanoma): 57.4 µM | TGI (A549 NSCLC): > 100 µM | TGI (HOP-18 NSCLC): > 100 µM | TGI (RXF 393 renal): 76.8 µM | TGI (CCRF-CEM leukemia): 88.2 µM | TGI (A498 renal): > 100 µM | TGI (U251 CNS): > 100 µM | TGI (K-562 leukemia): > 100 µM | TGI (ACHN renal): > 100 µM | TGI (COLO 205 colon): 89.4 µM | TGI (DMS 273 small cell lung): > 100 µM | TGI (CAKI-1 renal): 98.4 µM | TGI (786-0 renal): > 100 µM | TGI (SF-539 CNS): 98.4 µM | TGI (M14 melanoma): > 100 µM

O=C(CC1(O)C(=O)Nc2ccccc21)c1ccc(Cl)c(Cl)c1 (stereo not given)
TGI (OVCAR-5 ovarian): > 100 µM | TGI (LXFL 529 NSCLC): > 100 µM | TGI (HOP-92 NSCLC): > 100 µM | TGI (SK-MEL-28 melanoma): > 100 µM | TGI (SF-268 CNS): > 100 µM | TGI (UO-31 renal): > 100 µM | TGI (NCI-H522 lung): > 100 µM | TGI (SW-620 colon): > 100 µM | TGI (SN12C renal): > 100 µM | TGI (SF-295 CNS): > 100 µM | TGI (NCI-H23 lung): > 100 µM | TGI (IGROV1 ovarian): > 100 µM | TGI (SK-MEL-2 melanoma): > 100 µM | TGI (SK-OV-3 ovarian): > 100 µM | TGI (KM20L2 colon): > 100 µM | TGI (SNB-75 CNS): > 100 µM | TGI (SNB-19 CNS): > 100 µM | TGI (OVCAR-4 ovarian): > 100 µM | TGI (DLD-1 colon): > 100 µM | TGI (HT29 colon): > 100 µM | TGI (M19-MEL melanoma): > 100 µM | TGI (DMS 114 small cell lung): > 100 µM | TGI (HL-60(TB) leukemia): > 100 µM | TGI (RPMI-8226 leukemia): > 100 µM | TGI (EKVX NSCLC): > 100 µM | TGI (LOX IMVI melanoma): > 100 µM | TGI (HCT-15 colon): > 100 µM | TGI (NCI-H226 lung): > 100 µM | TGI (SNB-78 CNS): > 100 µM | TGI (UACC-62 melanoma): > 100 µM | TGI (NCI-H460 lung): > 100 µM | TGI (HCT-116 colon): > 100 µM | TGI (MOLT-4 leukemia): > 100 µM | TGI (SK-MEL-5 melanoma): > 100 µM | TGI (A549 NSCLC): > 100 µM | TGI (RXF 393 renal): > 100 µM | TGI (CCRF-CEM leukemia): > 100 µM | TGI (A498 renal): > 100 µM | TGI (U251 CNS): > 100 µM | TGI (K-562 leukemia): > 100 µM | TGI (ACHN renal): > 100 µM | TGI (SR leukemia): > 100 µM | TGI (COLO 205 colon): > 100 µM | TGI (DMS 273 small cell lung): > 100 µM | TGI (CAKI-1 renal): > 100 µM | TGI (786-0 renal): > 100 µM | TGI (SF-539 CNS): > 100 µM | TGI (M14 melanoma): > 100 µM | TGI (HCC-2998 colon): > 100 µM
